Measured values reported in patent US20060229324A1, “Quinazolin-4-one derivatives” (priority 2002, published 2006).

Key:
[1] = biological target: human hematopoietic prostaglandin D2 synthase (Homo sapiens, UniProt O60760); assay: Inhibitory activity against spleen-type (hematopoietic) prostaglandin D2 synthase, [14C]PGH2 to PGD2, TLC; type: biochemical; details: for inhibition at 10 µM / inhibition at 30 µM: read-out: Inhibitory Ratio of Prostaglandin D2 (PGD2) Synthase (%)
Description: A buffer solution of 100 mM Tris (hydroxymethyl)aminomethane/HCl buffer (pH8.0) containing glutathione (0.1 mM) and human hematopoietic prostaglandin D2 synthase (adequate quantity) was preincubated at 25° C. for 5 minutes in the presence or absence of a test compound, and then 14C labeled prostaglandin H2 ([14C]PGH2) (10 μM) was added, and the buffer solution was further incubated at 25° C. for one minute. A mixture of ether, methanol, and citric acid was added to the reaction mixture, and the ether layer was developed on silica gel thin-layer chromatography (TLC) (eluent=ether: methanol: acetic acid=90:2:1), and the PGD2 produced was measured by exposure to an imaging plate. The enzyme inhibitory rates of test compounds were calculated assuming the amount of production of PGD2 without the test compound being 100%.

[2] = system: RBL-2H3, a rat basophilic leukemia cell to express hematopoietic prostaglandin D synthase; assay: Prostaglandin D2 production inhibition test using cells (A23187-induced, EIA); type: cell-based; details: RBL-2H3 cells, A23187 2.5 μM; for inhibition at 10 µM: Rattus norvegicus, RBL-2H3, Drug Concentration 10 μM, read-out: Inhibitory Ratio of Prostaglandin D2 (PGD2) Production (%)
Description: RBL-2H3, a rat basophilic leukemia cell to express hematopoietic prostaglandin D synthase, was inoculated in a 24 well plate and incubated overnight. After replacement with a medium in the presence or absence of a test compound, preincubation was carried out at 37° C. for one hour. After washing of the cells with PBS(-), the medium was replaced with a Hepes buffer solution (pH7.4) in the presence or absence of the test compound, and incubation was continued at 37° C. for 15 minutes. Then, calcium ionophore (A23187) at a final concentration of 2.5 μM was added, and incubation was carried out at 37° C. for 15 minutes to induce the production of PGD2. The supernatant of the cells was collected, and the amount of PGD2 flowed out in the supernatant was measured by EIA kit by Cayman. The inhibitory ratio of the production of PGD2 by the test compound was calculated assuming the amount of PGD2 produced by A23187 in the absence of the test compound as being 100%.

human hematopoietic prostaglandin D2 synthase, sequence (O60760 whole entry): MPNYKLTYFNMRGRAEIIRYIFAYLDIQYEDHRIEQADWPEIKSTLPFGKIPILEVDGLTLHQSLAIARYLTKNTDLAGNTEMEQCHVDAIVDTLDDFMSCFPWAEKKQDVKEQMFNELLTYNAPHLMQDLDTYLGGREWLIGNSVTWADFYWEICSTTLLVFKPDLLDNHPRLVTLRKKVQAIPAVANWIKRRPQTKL

SMILES | Inhibitory Ratio of Prostaglandin D2 (PGD2) Synthase (%) ([1]; Drug Concentration 10 μM) | Inhibitory Ratio of Prostaglandin D2 (PGD2) Synthase (%) ([1]; Drug Concentration 30 μM) | Inhibitory Ratio of Prostaglandin D2 (PGD2) Production (%) ([2]; Drug Concentration 10 μM) | inhibition at 10 µM ([1]; Drug Concentration 10 μM) | inhibition at 30 µM ([1]; Drug Concentration 30 μM) | inhibition at 10 µM [2]
Cc1nn(-c2ccccc2)c(O)c1C=NN1C(=O)c2ccccc2NC1CO (stereo not shown) [Compound 39, 3-[(5-hydroxy-3-methyl-1-phenylpyrazol-4-yl)methylidene]-amino-2-hydroxymethyl-1,2,3,4-tetrahydroquinazolin-4-one] | 77% | 46% | 70% |  |  | 
Cc1nn(-c2ccccc2)c(O)c1/C=N/n1c(C)nc2ccc(Br)cc2c1=O [Compound 37, 6-bromo-3-[(5-hydroxy-3-methyl-1-phenylpyrazol-4-yl)-methylidene]amino-2-methyl-3,4-dihydroquinazolin-4-one] |  |  |  | 15% | 56% | 32%
Cc1nc2ccccc2c(=O)n1/N=C/c1c(C(F)(F)F)nn(-c2ccccc2)c1O [Compound 7, 3-[(5-hydroxy-1-phenyl-3-(trifluoromethyl)pyrazol-4-yl)-methylidene]amino-2-methyl-3,4-dihydroquinazolin-4-one] |  |  |  | 96% | 105% | 50%
Cc1nn(-c2ccc([N+](=O)[O-])cc2)c(O)c1C=Nn1c(C)nc2ccccc2c1=O [Compound 20, 3-{[3-methyl-1-(4-nitrophenyl)-5-hydroxypyrazol-4-yl]-methylidene}amino-2-methyl-3,4-dihydroquinazolin-4-one] |  |  |  | 37% | 83% | 15%
Cc1nn(-c2ccc(Cl)cc2)c(O)c1C=Nn1c(C)nc2ccccc2c1=O [Compound 17, 3-{[1-(4-chlorophenyl)-3-methyl-5-hydroxypyrazol-4-yl]methylidene}amino-2-methyl-3,4-dihydroquinazolin-4-one] |  |  |  | 29% |  | 21%
CCOc1c(/C=N/n2c(C)nc3ccccc3c2=O)c(C)nn1-c1ccccc1 [Compound 3, 3-[(5-ethoxy-3-methyl-1-phenylpyrazol-4-yl)methylidene]amino-2-methyl-3,4-dihydroquinazolin-4-one] |  |  |  | 13% |  | 21%
